{
  "source": "paper PMC9355956",
  "about": "(Communications Biology, 2022)",
  "key": {"hSMOX [1]": {"molecular_target": "T1, hSMOX (Homo sapiens, UniProt Q9NWM0)", "T1 construct": "6xHis (N); TEV cleavage site (N); made in house; host or cells: E. coli BL21(D3), plasmid PET28b(+)", "T1 sequence (Q9NWM0 whole entry)": "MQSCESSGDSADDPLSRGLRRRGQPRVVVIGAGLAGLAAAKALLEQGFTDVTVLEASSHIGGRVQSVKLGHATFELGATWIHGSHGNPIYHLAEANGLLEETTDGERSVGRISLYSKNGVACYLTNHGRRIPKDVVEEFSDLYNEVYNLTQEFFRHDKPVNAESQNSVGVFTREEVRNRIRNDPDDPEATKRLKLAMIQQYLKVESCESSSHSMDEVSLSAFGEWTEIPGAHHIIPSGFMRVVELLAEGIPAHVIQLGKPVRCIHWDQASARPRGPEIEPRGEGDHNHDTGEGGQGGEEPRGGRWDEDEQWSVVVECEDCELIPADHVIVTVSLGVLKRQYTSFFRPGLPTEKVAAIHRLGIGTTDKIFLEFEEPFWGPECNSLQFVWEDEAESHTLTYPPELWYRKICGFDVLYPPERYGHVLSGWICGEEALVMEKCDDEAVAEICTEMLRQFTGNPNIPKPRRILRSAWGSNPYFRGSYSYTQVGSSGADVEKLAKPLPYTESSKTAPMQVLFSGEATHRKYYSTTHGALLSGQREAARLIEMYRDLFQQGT", "test": "hSMOX HyPerBlu chemiluminescent enzyme activity assay (H2O2 detection, Spm substrate)", "format": "biochemical", "conditions": "for time-dependent inhibition of hSMOX: ± 2 h preincubation with enzyme", "source_text": "Based on this assay, we carried out a high-throughput screening campaign searching for inhibitors of hSMOX against a diverse compound collection."}, "hPAOX": {"molecular_target": "hPAOX (Homo sapiens, UniProt Q6QHF9)", "sequence (Q6QHF9 whole entry)": "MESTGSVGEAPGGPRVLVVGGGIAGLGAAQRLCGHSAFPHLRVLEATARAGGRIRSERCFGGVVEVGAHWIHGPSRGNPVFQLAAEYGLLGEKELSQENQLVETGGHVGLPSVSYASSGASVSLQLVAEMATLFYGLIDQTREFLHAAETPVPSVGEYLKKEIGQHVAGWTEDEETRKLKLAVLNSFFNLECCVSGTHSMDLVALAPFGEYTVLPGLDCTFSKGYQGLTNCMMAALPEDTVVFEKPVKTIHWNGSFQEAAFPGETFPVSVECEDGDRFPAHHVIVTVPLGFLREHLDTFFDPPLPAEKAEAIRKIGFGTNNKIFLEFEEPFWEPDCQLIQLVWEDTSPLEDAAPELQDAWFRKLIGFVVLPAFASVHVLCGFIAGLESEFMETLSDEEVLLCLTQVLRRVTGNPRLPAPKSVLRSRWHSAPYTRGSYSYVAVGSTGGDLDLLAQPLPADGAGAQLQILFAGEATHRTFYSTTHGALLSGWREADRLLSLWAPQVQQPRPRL", "test": "hPAOX HyPerBlu enzyme activity assay (N-AcSpm substrate)", "procedure": "The activity of hSMOX, hPAOX, and LSD1 enzymes was measured using the HyPerBlu chemiluminescent reagent for the direct detection of the hydrogen peroxide product. […] Hydrogen peroxide product formation was monitored 30 min after the addition of HyPerBlu on a PHERAstar microplate reader (BMG LABTECH, Cary, NC). All compounds were spotted into the assay plates using Echo acoustic dispensing technology (BeckmanCoulter, Indianapolis, IN). Unless otherwise stated, all reactions were carried out in 384-well assay format.\n2 µL/well of 2x substrate was dispensed into the assay plate followed by 2 µL/well of 2x enzyme to initiate the reactions. […] The data were fit to the 4-parameter IC50 equation in GraphPad Prism.\n50 nL/well of the twofold inhibitor titrations in 100% DMSO were dispensed into the assay plate followed by the addition of 2.5 µL of 2x hSMOX or 2x hPAOX. A 2 h or 4 h E·I preincubation was carried out at a final concentration of 2 nM or 3 nM hSMOX or 60 pM hPAOX. […] For the 0 h preincubation control, the addition of the substrate solution was made prior to the enzyme solution. […] The data were fit to the 4-parameter IC50 equation in GraphPad Prism.\nBriefly, 2.5 µL/well of the twofold substrate solutions prepared in buffer was added to the assay wells followed by 2.5 µL/well of the 2x enzyme to initiate the reactions.\nThe initial velocity data were fit to the Michaelis-Menten equation in GraphPad Prism. Y=Vmax*X/(Km+X) where Vmax is the maximal velocity, X is the substrate concentration and Km is the Michaelis-Menten constant. The kcat value was determined by dividing Vmax value by the enzyme concentration."}, "hSMOX in A549 cells": {"molecular_target": "T2, hSMOX in A549 cells (Homo sapiens, UniProt Q9NWM0)", "T2 construct": "human lung carcinoma cells (A549) which endogenously produce high levels of hSMOX; endogenous in cells; host or cells: A549 human lung carcinoma cells", "T2 sequence (Q9NWM0 whole entry)": "as the sequence (Q9NWM0 whole entry) above", "test": "CETSA in A549 cells with hSMOX AlphaLISA detection", "format": "cell-based", "conditions": "A549 intact cells, 54 °C, vs vehicle", "source_text": "To determine whether JNJ-1289 would be able to target hSMOX in a cellular environment, we developed a Cellular Thermal Shift Assay (CETSA®)[52] using human lung carcinoma cells (A549) which endogenously produce high levels of hSMOX[53]. CETSA evaluates the binding of low molecular weight compounds to target proteins directly in intact cells by taking advantage of the increased resistance to thermal denaturation that ligand binding can confer on proteins. Detection of the relative amounts of remaining soluble protein using AlphaLISA after incubation of A549 cells at the optimal melting temperature of hSMOX for CETSA (54 °C) was performed in the presence or absence of hSMOX ligands.\nA549 (adenocarcinoma human alveolar basal epithelial cells) express relatively high levels of hSMOX. Their use has been widely reported in the literature for the investigation of the polyamine catabolic pathway. In our case, using hSMOX high-expressing cells with CETSA and AlphaLISA systems provided the optimal platform for screening promising small molecules for hSMOX inhibition.\nT175 culture flasks with 80–90% confluent cells were used for harvesting after washing two times with PBS followed by the addition of 2 mL TrypLE^TMselect (Gibco) per flask and incubation for 5 min at 37 °C. After dissociation, cells were resuspended in 1 mL culture medium (DMEM (Gibco) with 10% fetal calf serum) and 7 mL PBS. Cells from multiple flasks were pooled, spun down for 5 min at 300 × g, and resuspended to 20 million cells/mL in PBS.\nCompounds were dissolved in DMSO to 1 mM stocks. Compound stocks and DMSO controls were added to vials containing 1 mL cell suspension to an end concentration of 10 µM compound and 1% DMSO. Vials were incubated at 37 °C for 1 h while shaking at 125 rpm. Subsequently, vials were cooled on ice and cells were distributed to PCR vials at 20 µL per vial. Transient heating of the cells was performed using a PCR Thermocycler. Vials were heated up to 54 °C for 1 min and then immediately cooled on ice. For temperature range experiments the heating step was repeated increasing the temperature with each next vial with 1 °C. After the cooling step cells were lysed by adding 80 µL 1x AlphaLISA-buffer (Perkin Elmer).\nThe hSMOX specific AlphaLISA was developed using internally monoclonal rabbit antibody mAb#2 and F(ab’)2 fragment Fab#33 against hSMOX containing a C-terminal His-tag. Both mAb#2 and Fab#33 are specific for hSMOX and selected for their ability to detect hSMOX without interfering with its catalytic activity. Care was taken to confirm that both mAb#2 and Fab#33 bind to distinct (conformational) epitopes. […] After 1 h Alpha signal was read using an Alpha compatible reader. […]"}, "LSD1": {"molecular_target": "LSD1 (Homo sapiens, UniProt O60341)", "test": "LSD1 HyPerBlu enzyme activity assay (H3K4me2 peptide substrate)"}, "hSMOX [2]": {"molecular_target": "T1, hSMOX", "test": "Thermal shift assay (ThermoFluor, ANS dye) of purified hSMOX", "format": "binding", "conditions": "compared to DMSO control", "description": "The fluorescent dye ANS (Molecular Probes) was used to monitor the thermal denaturation of hSMOX. Assay buffer consisting of 10 mM HEPES pH 7.5, 150 mM NaCl, 0.005% P20 was used for all dilutions. The assay was performed in 384-well Hard Shell thin-wall PCR plates (Bio-Rad). 120 nL of ligand was dispensed into the 384-well plate using acoustic dispensing technology followed by the addition of 4 µL of 0.2 mg/ml of hSMOX with 60 µM ANS dye. Replicates of 4% DMSO protein control were set up in each plate. Wells were covered with 1 µL silicone oil. Plates were centrifuged at 1000 rpm for 2 min. The Tm’s were measured using a ThermoFluor instrument. The plates were heated from 30 to 80 °C at a rate of 1 °C per minute. The ΔTm is calculated as the difference between the Tm of each well and that of the average 4% DMSO protein control."}, "hSMOX [3]": {"molecular_target": "T1, hSMOX", "test": "Progress curve analysis of hSMOX inhibition (on rate, mode of inhibition)", "format": "biochemical", "description": "Reactions were initiated with 3 µL/well of 2x hSMOX and quenched at several time points up to 1 h with 3 µL/well of 25 µM final chlorhexidine. […] Thereafter, 9 µL/well of HyPerBlu reagent was added.\nTime point data up to 1 h of reaction time was captured by dispensing 3 µL/well of 25 µM final chlorhexidine to quench the reactions followed by the addition of 9 µL/well HyPerBlu reagent.\nSupplementary Fig. 11. Kinetics of JNJ-1289. a, Reaction progress curve analysis of 2 nM […]\nProgress curves were monitored for 1h and fit to Eqn S1 at each JNJ-1289 concentration to determine the observed rate constant, kobs.\n[P] = Y0 + υ t + υi−υs (1 − e−kobst) (S1) […]\nwhere υi and υs are the initial and steady state velocities, respectively, t is time and kobs represents the observed rate constant. b, Replot of kobs vs. [JNJ-1289] was hyperbolic, which indicated a two-step binding mechanism […]\nwhere I is the inhibitor concentration, k5 and k6 are the estimated forward and reverse rate constants, respectively, and Kiapp is the apparent value of the initial E·I complex. […]\nconcentrations (7.8 – 1000 µM). Progress curves were monitored for 1h and fit to Eqn S3 at […]\n(1 picture or pasted object on this page, not shown here)"}, "hSMOX [4]": {"molecular_target": "T1, hSMOX", "test": "nanoDSF thermal denaturation of purified SMOX", "format": "binding", "conditions": "10 μM SMOX, 100 μM compound", "description": "All nanoDSF experiments were performed on a nanoTEMPER Prometheus NT.48 instrument. 10 μM purified SMOX was incubated with 100 μM compound of interest for 10 min and loaded onto the instrument. Thermal denaturation (25–90 °C) was conducted at 1.0 °C/min and 45% intensity. Tm was calculated using PR.ThermControl software as the inflection point of the first derivative of Trp fluorescence during the temperature gradient measured at 350/330 nm. All experiments were performed in triplicate."}, "murine SMOX enzyme": {"molecular_target": "murine SMOX enzyme", "conditions": "value reported for the murine SMOX enzyme; cited from earlier work"}, "[5]": {"conditions": "2.5 nM hSMOX, 30 µM Spm, 1 h reaction, HTS assay conditions, read-out: IC50 hSMOX"}},
  "note": "Several values for one entry are separate records, joined by “and”; a condition that tells them apart may be missing. Equal values may be shown once. Entries after “also recorded” stand apart in the source; their conditions may differ. Where a name gives a salt, the structure may show the parent alone. Read-outs that look alike come from different tables or passages of the source.",
  "data": [
    {"smiles": "NCCCNCCCCNCCCN", "note": "[Spm, spermine]", "values": [
      {"measurement": "kcat hSMOX", "setting": "hSMOX [1]; substrate, 2.5 nM hSMOX", "result": 4, "unit": "s⁻¹"}
    ]},
    {"smiles": "CC(=O)NCCCNCCCCNCCCN", "note": "[N-AcSpm, N^1-acetylspermine trihydrochloride]", "values": [
      {"measurement": "Km", "setting": "hPAOX; read-out: Km for hPAOX, substrate, 0.076 nM hPAOX", "result": "20.1 ± 0.63", "unit": "µM"},
      {"measurement": "kcat hPAOX", "setting": "hPAOX; substrate, 0.076 nM hPAOX", "result": 57, "unit": "s⁻¹"}
    ]},
    {"smiles": "CCNCCCNCCCNCCCNCC", "note": "[Benspm]", "values": [
      {"measurement": "cellular hSMOX engagement (AlphaLISA signal after heating)", "setting": "hSMOX in A549 cells", "result": "absence of cellular hSMOX engagement"}
    ]},
    {"smiles": "Oc1ccc(Nc2nc(-c3cnc4ccccn34)cs2)cc1", "note": "[JNJ-1289, 4-((4-imidazo[1,2,α]pyridine-3-ylthiazol-2-yl)amino)phenol]", "values": [
      {"measurement": "IC50", "setting": "hSMOX [1]; [5]", "result": 50, "unit": "nM"},
      {"measurement": "IC50", "setting": "hSMOX [1]; 2 h preincubation, 30 µM Spm, read-out: IC50 hSMOX, 2 h (120 min) enzyme-inhibitor preincubation", "result": "5.5 nM and 8 nM"},
      {"measurement": "IC50 hSMOX, 4 h (240 min) enzyme-inhibitor preincubation", "setting": "hSMOX [1]; 4 h preincubation, 30 µM Spm", "result": "within twofold of the results observed using a 120 min pre-incubation"},
      {"measurement": "IC50", "setting": "hSMOX [1]; IC50 hSMOX, 4 h (240 min) enzyme-inhibitor preincubation, 4 h preincubation, 30 µM Spm", "result": 3.2, "unit": "nM"},
      {"measurement": "IC50", "setting": "hSMOX [1]; no preincubation, 30 µM Spm, read-out: IC50 hSMOX, 0 h enzyme-inhibitor preincubation", "result": "143 nM and 127 nM"},
      {"measurement": "time-dependent inhibition of hSMOX", "setting": "hSMOX [1]", "result": "selective and time-dependent inhibition; also recorded: time-dependent hSMOX inhibitor"},
      {"measurement": "IC50", "setting": "LSD1", "result": "> 2000", "unit": "nM"},
      {"measurement": "ΔTm of hSMOX (thermal shift)", "setting": "hSMOX [2]", "result": 11.3, "unit": "°C"},
      {"measurement": "mode of inhibition with respect to Spm", "setting": "hSMOX [3]; 312 nM inhibitor, varying Spm, 2 nM hSMOX", "result": "competitive hSMOX inhibitor"},
      {"measurement": "t1/2 dissociation", "setting": "hSMOX [3]; from 0.693/koff", "result": 7.7, "unit": "h"},
      {"measurement": "Ki", "setting": "hSMOX [3]; read-out: apparent Ki (Ki app) of the initial E·I complex", "result": 1400, "unit": "nM"},
      {"measurement": "kon", "setting": "hSMOX [3]; read-out: apparent second-order on-rate constant (kon)", "result": 2500, "unit": "M⁻¹ s⁻¹"},
      {"measurement": "koff", "setting": "hSMOX [3]; read-out: calculated first-order dissociation rate constant (koff)", "result": "2.5e-05", "unit": "s⁻¹"},
      {"measurement": "cellular hSMOX engagement (AlphaLISA signal after heating)", "setting": "hSMOX in A549 cells", "result": "absence of cellular hSMOX engagement; also recorded: apparent lack of target engagement"},
      {"measurement": "thermal stability of hSMOX (nanoDSF)", "setting": "hSMOX [4]", "result": "increase the thermal stability of the protein"},
      {"measurement": "IC50", "setting": "hPAOX", "result": "> 2000", "unit": "nM"},
      {"measurement": "time-dependent inhibition of hPAOX", "setting": "hPAOX; ± 2 h preincubation with enzyme", "result": "do not observe time-dependent inhibition"}
    ]},
    {"smiles": "C=C=CCNCCCCNCC=C=C", "note": "[MDL72527, reference compound]", "values": [
      {"measurement": "cellular hSMOX engagement (AlphaLISA signal after heating)", "setting": "hSMOX in A549 cells", "result": "robust cellular hSMOX engagement"},
      {"measurement": "thermal stability of hSMOX (nanoDSF)", "setting": "hSMOX [4]", "result": "increase the thermal stability of the protein"}
    ]},
    {"smiles": "[H]/N=C(\\N/C(=N/[H])NCCCCCCNC(=N)NC(=N)Nc1ccc(Cl)cc1)Nc1ccc(Cl)cc1", "note": "[chlorhexidine, reference compound]", "values": [
      {"measurement": "inhibition of hSMOX (in words)", "setting": "hSMOX [1]", "result": "robust inhibition"},
      {"measurement": "IC50", "setting": "hSMOX [1]; [5]", "result": 1900, "unit": "nM"},
      {"measurement": "inhibition of hSMOX (in words)", "setting": "hSMOX [1]; listed as Chlorhexidine", "result": "inhibited"},
      {"measurement": "time-dependent inhibition of hSMOX", "setting": "hSMOX [1]", "result": "not observed"},
      {"measurement": "time-dependent inhibition of hSMOX", "setting": "hSMOX [1]; listed as Chlorhexidine", "result": "did not display time-dependent inhibition"},
      {"measurement": "cellular hSMOX engagement (AlphaLISA signal after heating)", "setting": "hSMOX in A549 cells", "result": "absence of cellular hSMOX engagement"},
      {"measurement": "Ki", "setting": "murine SMOX enzyme", "result": "3800 ± 200", "unit": "nM"}
    ]}
  ]
}
